Source: patent publication US6013618A, “Perfumes having odor longevity benefits” (Procter & Gamble Company, priority 1998, dated 2000)

Test: Fragrance Release Half-life: hydrolysis kinetics of pro-accords monitored by HPLC
Type: physicochemical
Conditions: 10 mL phosphate buffer (NaH2PO4/H3PO4, approximately pH 2.5) admixed with 90 mL dioxane, 30° C.
Description: Fragrance Release Half-life
The pro-accords useful in the perfume and fine flagrance compositions of the present invention generally have a delayed release of final fragrance accord in order to achieve the increased fragrance longevity benefits described herein. However, the pro-accords generally also deliver the fragrance accords during a time period useful to the formulator, for example, within a time period desirable to the consumer.
For the purposes of the present invention the pro-accords generally have a "Fragrance Release Half-life" of less than or equal to 12 hours when measured in NaH2 PO4 buffer at pH 2.5 and greater than or equal to 0.1 hour when measured in NaH2 PO4 buffer at pH 5.3. The "Fragrance Release Half-life" is defined herein as follows
Pro-accords deliver their corresponding mixture of fragrance raw materials or fragrance accords according to the equation: […]
wherein the accord which is released may be a binary accord or a multiple fragrance raw material accord.
The rate at which the accord is released is defined by the formula: […]
An example of the procedure used to measure the suitability of a pro-accord for use in the fragrance delivery systems at pH 2.5 is as follows. […] Next 10 mL of the phosphate buffer is admixed with 90 mL of dioxane and the pro-fragrance to be analyzed is added. The hydrolysis kinetics are then monitored by conventional HPLC at 30° C. […]

| t1/2 (Fragrance Release Half-life) | SMILES |
| --- | --- |
| 4.8 h | c1ccc(CCOC(OCCc2ccccc2)(OCCc2ccccc2)OCCc2ccccc2)cc1 [tetrakis(phenylethyl) orthocarbonate, Tetrakis(phenylethyl) Orthocarbonate] |
| 5.9 h | c1ccc(CCOC(OCCc2ccccc2)OCCc2ccccc2)cc1 [tris(phenylethyl) orthoformate, Tris(phenylethyl) Orthoformate] |
